# Measurements from patent publication US5486526A, “Histamine H3 -receptor antagonists and therapeutic uses thereof” (The University of Toledo, priority 1993, dated 1996).
# Like-named read-outs stand apart in the source and are kept apart here. Ends that are not written are not given here.
# What was measured:
# Male albino CF-1 mice = assay: Behavioral effects in mice: sleep induced by (R)α-methylhistamine; assay type: in vivo, mouse; conditions: i.p.
# Procedure: The overall strategy to show central nervous system antagonist activity was to challenge effects of the agonist (R)α-methylhistamine. Therefore, the first objective was to establish a dose response curve for behavioral effects of (R)α-methylhistamine. Male albino CF-1 mice weighing 20-30 g were used. Saline or (R)α-methylhistamine in saline was injected i.p. in a volume ≤0.4 ml. […] Animals were scored for the presence (1) or absence (0) of the behavior and the results were reported as the accumulated score for a 30 minute period (maximum score=9).
# To assess the effects of antagonists, they were administered with the (R)α-methylhistamine in saline.
# histamine H3 receptor = biological target: T1, histamine H3 receptor (Rattus norvegicus, UniProt Q9QYN8); assay: Inhibition of [^3 H]-N-alpha-methylhistamine binding to rat brain membranes; conditions: for binding to the histamine H3 -receptor (in words): discussion of Table I
# T1 construct: from tissue
# T1 sequence (Q9QYN8 whole entry): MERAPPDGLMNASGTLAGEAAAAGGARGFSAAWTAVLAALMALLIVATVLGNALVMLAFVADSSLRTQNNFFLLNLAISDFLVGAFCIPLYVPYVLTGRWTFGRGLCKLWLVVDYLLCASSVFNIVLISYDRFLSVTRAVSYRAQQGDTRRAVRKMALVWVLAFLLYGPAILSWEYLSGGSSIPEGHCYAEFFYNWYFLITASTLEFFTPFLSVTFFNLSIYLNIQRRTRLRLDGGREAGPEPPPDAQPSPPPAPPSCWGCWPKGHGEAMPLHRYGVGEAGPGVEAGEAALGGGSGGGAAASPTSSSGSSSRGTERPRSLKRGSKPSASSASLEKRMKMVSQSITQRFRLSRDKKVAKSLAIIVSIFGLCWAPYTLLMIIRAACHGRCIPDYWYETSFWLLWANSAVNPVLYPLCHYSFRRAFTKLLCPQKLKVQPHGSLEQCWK
# Procedure: A series of compounds were prepared and tested for their histamine H3 receptor antagonist activity. The antagonist activity of the compounds was detected by observing inhibition of (^3 H)-N-(alpha)methylhistamine activity on rat brain membranes.
# The various compounds were tested for the ability to bind to the histamine H3 receptor. A binding assay in a rat brain membrane preparation, based on inhibition of binding of [^3 H]-N-alpha-methylhistamine using excess unlabeled alpha-methylhistamine to account for nonspecific binding, was developed.
# Benzodiazephine = conditions: reference compound; cited from earlier work
# [1] = biological target: Adenylate Cyclase Forskolin; conditions: reference compound; cited from earlier work
# MK-801 = conditions: reference compound; cited from earlier work
# Adenosine = conditions: reference compound; cited from earlier work
# NMDA = conditions: reference compound; cited from earlier work
# Calcium = conditions: reference compound; cited from earlier work
# PCP = conditions: reference compound; cited from earlier work
# Quisqualate = conditions: reference compound; cited from earlier work
# Serotonin 1 = conditions: reference compound; cited from earlier work
# Serotonin 2 = conditions: reference compound; cited from earlier work
# Dopamine 2 = conditions: reference compound; cited from earlier work
# ANF (rat) = conditions: reference compound; cited from earlier work
# Angiotensin = conditions: reference compound; cited from earlier work
# Potassium = conditions: reference compound; cited from earlier work
# EGF = conditions: reference compound; cited from earlier work
# NGF = conditions: reference compound; cited from earlier work
# Substance K = conditions: reference compound; cited from earlier work
# NPY = conditions: reference compound; cited from earlier work
# Neurotensin = conditions: reference compound; cited from earlier work
# Somatostatin = conditions: reference compound; cited from earlier work
# Substance P = conditions: reference compound; cited from earlier work
# Bombesin = conditions: reference compound; cited from earlier work
# VIP = conditions: reference compound; cited from earlier work
# Arg-Vasopressin V1 = conditions: reference compound; cited from earlier work
# [2] = ^3 HN^α -methylhistamine as radioligand, rat brain membranes, first part of Table I, read-out: IC50
# [3] = ^3 HN^α -methylhistamine as radioligand, rat brain membranes, second part of Table I, read-out: IC50
molecule,measurement,setting,value
C[C@@H](N)Cc1c[nH]cn1 [(R)α-methylhistamine],sleeping,"Male albino CF-1 mice; 15 to 35 mg/kg, one hour after injection",dose-dependent (range of 15 to 35 mg/kg) increase in sleeping one hour after injection
same,sleeping,Male albino CF-1 mice; 30 minutes after injection,evident at 30 minutes after injection
"CNC(=S)NCCCCc1cnc[nH]1 [Burimamide, reference compound]",IC50,histamine H3 receptor; [2],156 ± 57 nM
O=C1CN=C(c2ccccc2Cl)c2cc([N+](=O)[O-])ccc2N1 [Clonazepam],Ki,Benzodiazephine,3.4 nM
CC(C)(C)OC(=O)N1CCC(c2c[nH]cn2)CC1 [Compound 2],IC50,histamine H3 receptor,243.5 ± 1.9 nM
O=C(CC1CCCCC1)N1CCC(c2c[nH]cn2)CC1 [Compound 3],IC50,histamine H3 receptor,19 ± 12 nM
O=C(CCCc1ccccc1)N1CCC(c2c[nH]cn2)CC1 [Compound 5],IC50,histamine H3 receptor; [2],262 ± 9 nM
O=C(CCC1CCCCC1)N1CCC(c2c[nH]cn2)CC1 [Compound 6],IC50,histamine H3 receptor; [2],34 ± 1.4 nM
O=C(CCc1ccccc1)N1CCC(c2c[nH]cn2)CC1 [Compound 7],IC50,histamine H3 receptor; [2],34.1 ± 3.6 nM
O=C(/C=C/c1ccccc1)N1CCC(c2c[nH]cn2)CC1 [Compound 10],IC50,histamine H3 receptor; [3],570 ± 172 nM
O=C(C(c1ccccc1)C1CCCCC1)N1CCC(c2c[nH]cn2)CC1 (centres unmarked) [Compound 11],IC50,histamine H3 receptor; [3],260 ± 38 nM
O=C(CCCC1CCCCC1)N1CCC(c2c[nH]cn2)CC1 [Compound 12],IC50,histamine H3 receptor; [2],41.4 ± 9 nM
O=C(c1ccccc1)N1CCC(c2c[nH]cn2)CC1 [Compound 13],IC50,histamine H3 receptor; [2],151 ± 44 nM
N#CN=C(Oc1ccccc1)N1CCC(c2c[nH]cn2)CC1 [Compound 47],IC50,histamine H3 receptor; [2],231 nM
same,binding to the histamine H3 -receptor (in words),histamine H3 receptor,ineffective at binding to the H3 -receptor
N#CN=C(NC1CCCCC1)N1CCC(c2c[nH]cn2)CC1 [Compound 48],binding to the histamine H3 -receptor (in words),histamine H3 receptor,ineffective at binding to the H3 -receptor
N#CN=C(Nc1ccc(-c2c[nH]cn2)cc1)NC1CCCCC1 [Compound 50],binding to the histamine H3 -receptor (in words),histamine H3 receptor,ineffective at binding to the H3 -receptor
O=C(CC(c1ccccc1)c1ccccc1)N1CCC(c2c[nH]cn2)CC1 [Compound 52],IC50,histamine H3 receptor; [2],93.1 nM
O=C(CCC(c1ccccc1)c1ccccc1)N1CCC(c2c[nH]cn2)CC1 [Compound 53],IC50,histamine H3 receptor; [2],124 nM
O=C(CC=C(c1ccccc1)c1ccccc1)N1CCC(c2c[nH]cn2)CC1 [Compound 54],IC50,histamine H3 receptor; [2],1000 nM
C=C[C@@]1(C)CC(=O)[C@]2(O)[C@@]3(C)[C@@H](O)CCC(C)(C)[C@@H]3[C@H](O)[C@H](OC(C)=O)[C@@]2(C)O1 [Forskolin],Ki,[1],29.4 nM
C[C@]12N[C@H](Cc3ccccc31)c1ccccc12 [MK801],Ki,MK-801,4.3 nM
CCNC(=O)[C@H]1O[C@@H](n2cnc3c(N)ncnc32)[C@H](O)[C@@H]1O [NECA],Ki,Adenosine,120 nM
CN[C@H](CC(=O)O)C(=O)O [NMDA],Ki,NMDA,359 nM
COC(=O)C1=C(C)NC(C)=C(C(=O)OC)C1c1ccccc1[N+](=O)[O-] [Nifedipine],Ki,Calcium,1.6 nM
c1ccc(C2(N3CCCCC3)CCCCC2)cc1 [PCP],Ki,PCP,62.3 nM
N[C@@H](Cn1oc(=O)[nH]c1=O)C(=O)O [Quisqualic Acid],Ki,Quisqualate,11.8 nM
NCCc1c[nH]c2ccc(O)cc12 [Serotonin],Ki,Serotonin 1,4.6 nM
same,Ki,Serotonin 2,531 nM
O=C(CCCN1CCC2(CC1)C(=O)NCN2c1ccccc1)c1ccc(F)cc1 [Spiperone],Ki,Dopamine 2,0.08 nM
"CNCCc1c[nH]cn1 [[^3 H]-N-alpha-methylhistamine, reference compound]",Kd,histamine H3 receptor,0.19 nM
ANP: Reference Compound,Ki,ANF (rat),0.15 nM
Angiotensin II: Reference Compound,Ki,Angiotensin,0.2 nM
"Apamin: Reference Compound (CNCKAPETALCARRCQQH; ends and bridges not checked; cysteine pairing not given here; UniProt P01500 28-45, looked up)",Ki,Potassium,0.05 nM
EGF: Reference Compound,Ki,EGF,0.24 nM
NGF: Reference Compound,Ki,NGF,0.8 nM
Neurokinin A: Reference Compound,Ki,Substance K,2.75 nM
Neuropeptide Y: Reference Compound,Ki,NPY,0.5 nM
Neurotensin,Ki,Neurotensin,1.23 nM
Somatostatin: Reference Compound,Ki,Somatostatin,0.03 nM
Substance P: Reference Compound,Ki,Substance P,0.08 nM
Tyr4-Bombesin,Ki,Bombesin,0.55 nM
VIP: Reference Compound,Ki,VIP,1.53 nM
arg-Vasopressin: Reference Compound,Ki,Arg-Vasopressin V1,4.9 nM
